Data published in patent US12240857B2 (priority 2017, dated 2025).
Several values for one entry are separate records, joined by “and”; a condition that tells them apart may be missing. Equal entries are not always repeated. Where two headings read alike, the source gives them in different places.

Assays:
wild-type Ebola Zaire [1] = test: microbe, parasite or virus in culture; details: Zaire ebolavirus, HeLa, read-out: Ebola Zaire EC50
[2] = in vivo
EBOV (Mayinga) [3] = test: microbe, parasite or virus in culture; type: cell-based, Zaire ebolavirus; details: for EC90: Zaire ebolavirus
hERG ion channel = hERG ion channel (Homo sapiens, UniProt Q12809); test: biochemical
human Cyp-p450 3A4 = human Cyp-p450 3A4 (Homo sapiens, UniProt P08684); test: biochemical
in vitro [4] = details: mouse, microsomes
in vitro [5] = details: monkey, microsomes
[6] = test system: full-length Marburgvirus (MARV) GP pseudotyped VSV; test: microbe, parasite or virus in culture; type: cell-based, Marburg marburgvirus; details: Orthomarburgvirus, read-out: EC50 Pseudotype Assays MARV
wild-type Sudan Gulu [7] = test: microbe, parasite or virus in culture; details: Sudan ebolavirus, HeLa, read-out: Sudan Gulu EC50
in vitro [8] = details: human, Caco-2
in vitro [9] = details: human
wild-type Ebola Zaire [10] = test system: wild-type Ebola Zaire
[11] = test system: full-length SUDV GP pseudotyped VSV; test: microbe, parasite or virus in culture; type: cell-based, Sudan ebolavirus; details: Vesicular stomatitis virus, read-out: EC50 Pseudotype Assays SUDV
wild-type Sudan Gulu [12] = test system: wild-type Sudan Gulu
[13] = test system: CYP1A2, CYP2B6, CYP2C9, CYP2C19, CYP2D6; test: in vitro; details: human
in vitro [14] = details: mouse
in vivo = details: male, CD-1, mouse
[15] = test system: full-length LASV glycoprotein pseudotyped VSV; test: microbe, parasite or virus in culture; type: cell-based, Lassa virus; details: Vesicular stomatitis virus, read-out: EC50 Pseudotype Assays LASV
[16] = test system: BDBV mucin-domain-deleted glycoprotein pseudotyped VSV; test: microbe, parasite or virus in culture; type: cell-based, Bundibugyo ebolavirus; details: Vesicular stomatitis virus, Vero
[17] = test system: full-length Ebola Zaire GP pseudotyped VSV (EBOV_FL); test: microbe, parasite or virus in culture; type: cell-based; details: Zaire ebolavirus, read-out: EC50 Pseudotype Assays EBOV_FL
[18] = test system: parent VSV virus expressing the native VSV glycoprotein; test: microbe, parasite or virus in culture; type: cell-based; details: Vesicular stomatitis virus, Vero, read-out: EC50 Pseudotype Assays VSV
EBOV (Mayinga) [19] = test: microbe, parasite or virus in culture; type: cell-based, Zaire ebolavirus; details: for EC50: Zaire ebolavirus, Vero
[20] = test system: human Cyp-p450 enzymes 1A2, 2B6, 2C9, 2C19, 2D6
in vitro [21] = details: African green monkey
[22] = test system: EBOV mucin-domain-deleted glycoprotein pseudotyped VSV; test: microbe, parasite or virus in culture; type: cell-based, Zaire ebolavirus; details: Zaire ebolavirus, Vero
in vitro [23] = details: human, microsomes
physchem = details: pH 7, aqueous buffer, kinetic from dmso stock
P-gp = P-gp (Homo sapiens, UniProt P08183)
native EBOV virus = details: read-out: published EC50 against native EBOV virus; cited from earlier work
Ebola virus infection = details: human, in vivo; cited from earlier work
[24] = human, in vivo; cited from earlier work
[25] = read-out: EC50 Pseudotype Assays BDBV
[26] = read-out: EC50 Pseudotype Assays EBOV

Chain of human Cyp-p450 3A4 (P08684 whole entry): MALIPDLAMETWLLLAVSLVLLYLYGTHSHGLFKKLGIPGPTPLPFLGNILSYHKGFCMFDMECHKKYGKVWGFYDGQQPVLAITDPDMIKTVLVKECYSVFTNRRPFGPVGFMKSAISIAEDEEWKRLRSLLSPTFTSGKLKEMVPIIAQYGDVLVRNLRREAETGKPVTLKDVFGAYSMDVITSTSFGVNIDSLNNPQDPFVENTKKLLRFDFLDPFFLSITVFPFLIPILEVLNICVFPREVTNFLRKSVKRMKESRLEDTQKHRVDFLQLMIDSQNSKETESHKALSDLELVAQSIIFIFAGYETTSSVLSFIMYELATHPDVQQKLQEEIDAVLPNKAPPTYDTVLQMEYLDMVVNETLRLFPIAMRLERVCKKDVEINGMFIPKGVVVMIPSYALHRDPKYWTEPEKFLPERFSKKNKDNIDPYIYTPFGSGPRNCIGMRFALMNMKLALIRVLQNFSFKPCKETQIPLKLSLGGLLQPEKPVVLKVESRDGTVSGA
Chain of P-gp (P08183 whole entry): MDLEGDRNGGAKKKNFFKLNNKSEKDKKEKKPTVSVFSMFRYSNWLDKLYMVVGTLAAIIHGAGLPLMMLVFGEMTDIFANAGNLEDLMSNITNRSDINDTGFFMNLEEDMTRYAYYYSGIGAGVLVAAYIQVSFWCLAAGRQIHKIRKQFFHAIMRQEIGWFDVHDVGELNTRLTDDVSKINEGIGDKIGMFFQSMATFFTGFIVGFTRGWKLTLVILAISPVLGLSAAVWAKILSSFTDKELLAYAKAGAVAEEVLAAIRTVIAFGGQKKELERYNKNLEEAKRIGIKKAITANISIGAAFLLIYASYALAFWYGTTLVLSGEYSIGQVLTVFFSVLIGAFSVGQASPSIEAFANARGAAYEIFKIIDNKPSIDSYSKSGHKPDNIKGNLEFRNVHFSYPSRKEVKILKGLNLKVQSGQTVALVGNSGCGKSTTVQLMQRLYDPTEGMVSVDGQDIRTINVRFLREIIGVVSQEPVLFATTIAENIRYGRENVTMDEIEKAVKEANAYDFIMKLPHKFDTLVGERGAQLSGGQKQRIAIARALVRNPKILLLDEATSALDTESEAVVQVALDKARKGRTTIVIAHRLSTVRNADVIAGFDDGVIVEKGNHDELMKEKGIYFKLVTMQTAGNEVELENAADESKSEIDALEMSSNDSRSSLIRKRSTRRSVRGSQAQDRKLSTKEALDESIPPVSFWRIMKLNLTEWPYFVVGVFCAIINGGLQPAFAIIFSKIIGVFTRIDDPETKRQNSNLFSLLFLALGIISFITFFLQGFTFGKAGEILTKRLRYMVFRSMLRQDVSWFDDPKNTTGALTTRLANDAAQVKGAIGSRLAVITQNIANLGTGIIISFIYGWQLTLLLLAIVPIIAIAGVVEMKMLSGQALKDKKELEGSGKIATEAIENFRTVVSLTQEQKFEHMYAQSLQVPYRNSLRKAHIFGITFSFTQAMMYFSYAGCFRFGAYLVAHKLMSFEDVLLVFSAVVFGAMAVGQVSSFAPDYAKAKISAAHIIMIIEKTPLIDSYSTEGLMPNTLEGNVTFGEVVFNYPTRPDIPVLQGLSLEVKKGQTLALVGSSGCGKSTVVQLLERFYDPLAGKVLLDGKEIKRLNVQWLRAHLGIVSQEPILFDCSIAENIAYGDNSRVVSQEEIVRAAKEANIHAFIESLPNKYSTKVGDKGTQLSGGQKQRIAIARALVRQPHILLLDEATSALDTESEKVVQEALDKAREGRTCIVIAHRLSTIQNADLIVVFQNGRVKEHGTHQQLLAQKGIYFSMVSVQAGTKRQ
Chain of hERG ion channel (Q12809 whole entry): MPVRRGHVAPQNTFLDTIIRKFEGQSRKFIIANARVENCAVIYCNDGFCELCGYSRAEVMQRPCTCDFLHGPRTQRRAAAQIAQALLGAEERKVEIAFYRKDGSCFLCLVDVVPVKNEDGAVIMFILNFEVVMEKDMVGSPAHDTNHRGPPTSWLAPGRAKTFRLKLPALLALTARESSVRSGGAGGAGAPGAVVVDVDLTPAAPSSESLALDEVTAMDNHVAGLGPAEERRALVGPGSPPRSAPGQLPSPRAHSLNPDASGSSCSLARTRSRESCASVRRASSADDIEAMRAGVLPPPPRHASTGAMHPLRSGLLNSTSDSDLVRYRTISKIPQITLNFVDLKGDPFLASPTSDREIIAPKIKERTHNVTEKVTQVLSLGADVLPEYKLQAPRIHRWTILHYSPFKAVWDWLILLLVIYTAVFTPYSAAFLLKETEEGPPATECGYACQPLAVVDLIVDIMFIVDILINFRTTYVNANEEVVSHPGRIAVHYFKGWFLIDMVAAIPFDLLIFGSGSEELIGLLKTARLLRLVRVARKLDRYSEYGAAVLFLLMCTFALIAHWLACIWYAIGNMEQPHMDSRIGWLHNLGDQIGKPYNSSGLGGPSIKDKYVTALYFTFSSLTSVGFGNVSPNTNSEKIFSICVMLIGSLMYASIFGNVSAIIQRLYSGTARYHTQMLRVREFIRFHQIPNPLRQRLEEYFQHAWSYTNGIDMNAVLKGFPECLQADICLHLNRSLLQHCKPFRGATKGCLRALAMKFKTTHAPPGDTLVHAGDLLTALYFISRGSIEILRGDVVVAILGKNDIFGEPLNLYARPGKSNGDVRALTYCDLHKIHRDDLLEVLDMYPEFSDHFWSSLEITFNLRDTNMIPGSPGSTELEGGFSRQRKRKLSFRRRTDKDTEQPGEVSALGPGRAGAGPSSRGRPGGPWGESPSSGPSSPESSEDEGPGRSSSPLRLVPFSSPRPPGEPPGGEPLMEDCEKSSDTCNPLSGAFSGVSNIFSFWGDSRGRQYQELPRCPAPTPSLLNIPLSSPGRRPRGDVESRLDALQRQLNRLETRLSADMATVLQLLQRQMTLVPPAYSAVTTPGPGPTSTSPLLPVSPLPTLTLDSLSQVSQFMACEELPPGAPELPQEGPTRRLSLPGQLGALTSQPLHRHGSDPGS

For `CC12CC3CC(C(=O)N[C@H]4CC[C@H](N)CC4)(C1)CC(c1ccccc1)(C3)C2.Cl` (stereo partly shown) [Example A78], the EC50 (wild-type Ebola Zaire [1]) was 210 nM, the F ([2]; male, CD-1, mouse) was 72% and the CI ([2]; male, CD-1, mouse, iv, 1 mg/kg) was 29.72 mL/min/kg. For the same compound, the clearance ([2]; mouse) was “less than hepatic blood flow”, the “SI90 (CC50/EC90)” value (EBOV (Mayinga) [3]) was 8.2 and the EC90 (EBOV (Mayinga) [3]) was 5600 nM. For the same compound, the IC50 (hERG ion channel) was greater than 10000 nM, the IC50 (human Cyp-p450 3A4; Cyp-p450 inhibition IC50, 3A4 (Midazolam)) was greater than 100000 nM and the IC50 (human Cyp-p450 3A4; Cyp-p450 inhibition IC50, 3A4 (Testosterone)) was ~28000 nM and 28000 nM. For the same compound, the half-life (in vitro [4]) was 4.45 h, the half-life (in vitro [5]) was greater than 2 h and the EC50 [6] was 3500 nM. For the same compound, the EC50 (wild-type Sudan Gulu [7]) was 210 nM, the Papp A→B (in vitro [8]) was 3.61 ×10⁻⁶ cm/s and the Papp B→A (in vitro [8]) was 15.6 ×10⁻⁶ cm/s. For the same compound, the efflux ratio (in vitro [8]) was 4.32, the fraction unbound (in vitro [9]) was 0.025 and the “Ebola Zaire SI (CC50/EC50)” value (wild-type Ebola Zaire [10]) was 268.2. The EC50 [11] was 210 nM, the “Sudan Gulu SI (CC50/EC50)” value (wild-type Sudan Gulu [12]) was 264.3 and the IC50 [13] was no less than 90000 nM. For the same compound, the fraction unbound (in vitro [14]) was 0.014, the Vd (in vivo) was 14 L/kg and the half-life (in vivo) was 7.1 h. For the same compound, the half-life (in vivo; 10 mg/kg) was 7 h, the AUC(0-inf) (in vivo; iv, 1 mg/kg) was 561 ng·h/mL and the AUC(0-t) (in vivo; iv, 1 mg/kg) was 539 ± 23 ng·h/mL. For the same compound, the Cmax (in vivo; iv, 1 mg/kg) was 129 ± 40 ng/mL, the Tmax (in vivo; iv, 1 mg/kg) was 0.083 h and the Vd (in vivo; iv, 1 mg/kg) was 13.9 L/kg. The half-life (in vivo; iv, 1 mg/kg) was 5.4 h, the AUC(0-inf) (in vivo; po, 10 mg/kg) was 4040 ng·h/mL and the AUC(0-t) (in vivo; po, 10 mg/kg) was 3590 ± 576 ng·h/mL. For the same compound, the Cmax (in vivo; po, 10 mg/kg) was 239 ± 46 ng/mL, the Tmax (in vivo; po, 10 mg/kg) was 6 h and the bioavailability (in vivo; po, 10 mg/kg) was 72%. It also gave a half-life (in vivo; po, 10 mg/kg) of 7.1 h, an EC50 [15] greater than 10000 nM and an EC50 ([16]; read-out: EC50 BDBV) of 90 nM. The EC50 [16, 25] was 90 nM, the EC50 [17] was 50 nM and the EC50 [18] was greater than 10000 nM. The “SI50 (CC50/EC50)” value (EBOV (Mayinga) [19]) was 41.5, the EC50 (EBOV (Mayinga) [19]) was 1100 nM and the “Cyp-p450 inhibition IC50, 1A2, 2B6, 2C9, 2C19” value [20] was “not an inhibitor”. It also gave a CC50 (in vitro [21]; Cytotox CC50) greater than 10000 nM, an EC50 ([22]; read-out: EC50 EBOV) of 20 nM and an EC50 [22, 26] of 20 nM. For the same compound, the half-life (in vitro [23]) was 7.7 h, the solubility (physchem) was greater than 500 µM and the “P-gp substrate ID Caco-2 Permeability (+Verapamil) Paap Mean A > B” value (P-gp) was 8.47 10^−6 cm s^−1. The “P-gp substrate ID Caco-2 Permeability (+Verapamil) Paap Mean B > A” value (P-gp) was 7.45 10^−6 cm s^−1.

With `CCC12CC3CC(C(=O)NC4CCNCC4)(C1)CC(c1ccccc1)(C3)C2` (stereo not shown) [Example A80] the EC50 (wild-type Ebola Zaire [1]) was 130 nM, the “SI90 (CC50/EC90)” value (EBOV (Mayinga) [3]) was 9.6 and the EC90 (EBOV (Mayinga) [3]) was 8900 nM. It also gave a half-life (in vitro [4]) greater than 2 h, a half-life (in vitro [5]) of 1.48 h and an EC50 [6] of 1100 nM. For the same compound, the EC50 (wild-type Sudan Gulu [7]) was 140 nM, the “Ebola Zaire SI (CC50/EC50)” value (wild-type Ebola Zaire [10]) was 137 and the EC50 [11] was 400 nM. The “Sudan Gulu SI (CC50/EC50)” value (wild-type Sudan Gulu [12]) was 130, the EC50 [15] was greater than 10000 nM and the EC50 ([16]; read-out: EC50 BDBV) was 50 nM. It also gave an EC50 [16, 25] of 60 nM, an EC50 [17] of 40 nM and an EC50 [18] greater than 10000 nM. The “SI50 (CC50/EC50)” value (EBOV (Mayinga) [19]) was 95.6, the EC50 (EBOV (Mayinga) [19]) was 890 nM and the CC50 (in vitro [21]; CC50) was 10000 nM. For the same compound, the CC50 (in vitro [21]; Cytotox CC50) was greater than 10000 nM, the EC50 ([22]; read-out: EC50 EBOV) was 10 nM and the EC50 [22, 26] was 20 nM. It also gave a half-life (in vitro [23]) of 1.72 h.

In the case of `NC(=O)c1nc(F)c[nH]c1=O` [favipiravir], the “SI90 (CC50/EC90)” value (EBOV (Mayinga) [3]) is listed as 3, the EC90 (EBOV (Mayinga) [3]) is listed as 333000 nM and the EC50 (native EBOV virus) is listed as 67000 nM. The “drop in viral load” value (Ebola virus infection) was 3-4 log and the half-life in humans [24] was 1 to 4 h.
